Results from patent publication US20030055046A1, “Novel pyrido cyclohexenyl phenyl carboxamides tocolytic oxytocin receptor antagonists” (Wyeth, priority 2001, published 2003).
Structures can show the parent of a compound that is named as a salt.

Target: T1, human oxytocin receptor (Homo sapiens, UniProt P30559)
T1 construct: host or cells: CHO cells, stably transfected (pcDNA3.1 vector)
T1 sequence (P30559 1-389): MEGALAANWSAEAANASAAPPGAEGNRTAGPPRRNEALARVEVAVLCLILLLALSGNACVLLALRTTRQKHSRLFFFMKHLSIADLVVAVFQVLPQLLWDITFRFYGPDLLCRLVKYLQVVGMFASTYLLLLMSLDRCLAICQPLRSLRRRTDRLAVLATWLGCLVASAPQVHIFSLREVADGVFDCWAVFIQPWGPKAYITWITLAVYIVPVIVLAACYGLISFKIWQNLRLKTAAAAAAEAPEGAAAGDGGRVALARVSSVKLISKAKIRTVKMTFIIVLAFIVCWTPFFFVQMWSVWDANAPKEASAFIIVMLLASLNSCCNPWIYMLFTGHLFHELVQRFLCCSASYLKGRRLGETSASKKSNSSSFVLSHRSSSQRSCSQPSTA
Assay: Oxytocin binding in CHO cell membranes expressing human oxytocin receptors
Settings: [3H]oxytocin; for IC50: value in parentheses, read-out: OT IC50
Text: Oxytocin binding in Chinese Hamster Ovary cell membranes expressing human oxytocin receptors
Chinese Hamster Ovary (CHO) cells stably transfected with the human oxytocin (cf. Tanizawa et al., U.S. Pat. No. 5,466,584 (1995) to Rohto Pharmaceutical Co. Ltd., Osaka, Japan) were obtained from M. Thibonnier, Case Western Reserve University School of Medicine, Cleveland, Ohio.
A. Passaging and Amplification of Cells:
CHO cells transfected with the human oxytocin receptors obtained from M. Thibonnier (pcDNA3.1 vector) are allowed to grow to confluency (approx. >90%) in T-150 flasks under sterile conditions, in a cell culture medium consisting of F-12 Nutrient Mixture (HAM) with L-glutamine (Gibco Cat.# 11765-054) containing 15 mM HEPES (Gibco Cat.# 15630-080), 1% antibiotic/antimycotic (add 5 mL 100×, Gibco Cat.# 15240-062 per 500 mL F-12), 400 μg/mL of Geneticin (add 4 mL of 50 mg/mL per 500 mL F-12) and 10% Fetal Bovine Serum (Qualified, heat inactivated, Gibco Cat.# 16140-063). The medium is removed by aspiration and the cells are washed with 10 mL of Hank's Balanced Salt solution (Gibco Cat.# 14175-095). The salt solution is removed by aspiration and the cells trypsinized with 5 mL of trypsin-EDTA (0.05% trypsin, 0.53 mM EDTA-4Na, Gibco Cat.# 25300-070) for 1 min The trypsin is removed by aspiration and the cells dislodged by tapping. Cell Culture medium (e.g. 30 mL for 1:30 split) is immediately added and mixed well to inactivate trypsin. 1 mL of detached cells is added to new culture flasks containing fresh Cell Culture medium (e.g. into 25 mL per T-150 flask), and mixed gently. The cells are incubated at 37° C. in 5% CO2. The medium is changed at 3 to 4 days interval (or as appropriate). The cells grow to confluency (approx. >75%-95%) within 7-8 days. All steps are done under sterile conditions.
The cells are washed twice gently with Hank's Balanced Salt solution (eg, use 10 mL per T-150 flask). The excess solution is removed and the cells bathed for 15-30 min. in an enzyme-free Cell Dissociation Buffer (eg, use 8 mL Hank's Based, Gibco Cat.# 13150-016 per T-150 flask) until cells are loosened. The contents are transferred to centrifuge tubes (50 mL size) kept in ice bath. All subsequent steps are done at 4° C. The tubes are centrifuged at 300×g for 15 min (1380 rpm on SORVAL, Model RT6000D, using rotor for 50 mL tubes). The supernatant is discarded and the cells suspended in homogenizing buffer (10 mM Tris-HCl containing 0.25 M sucrose and 1 mM EDTA, pH 7.4) ensuring that the volume of the buffer is about ten times the volume of the cell pellet. The cells are pooled into a centrifuge tube (50 mL) and homogenized with a Polytron at setting 6 for 10 sec. The homogenate is transferred into a Potter-Elvjehm homogenizer and homogenized with 3 strokes. The homogenate is centrifuged at 1500×g for 10 min at 4° C. (3100 rpm using SORVAL, model RT6000D, using rotor for 50 mL tubes). The pellet is discarded. The supernatant is centrifuged at 100,000×g for 60 min. at 4° C. (Beckman L8-80M ultracentrifuge; spin at 37,500 rpm with rotor type 70 Ti for 50 mL tubes; 38,000 rpm with type 80Ti for 15 mL tubes; or 35,800 rpm with rotor type 45Ti). The supernatant is discarded and the pellet suspended in 3 to 4 mL of Tris buffer (50 mM TRIS-HCl, pH 7.4). The protein content is estimated by the Bradford or Lowry method. The volume of the membrane suspension is adjusted with the membrane buffer (50 mM Tris-HCl containing 0.1 % BSA and 0.1 mM PMSF) to give 3.0 mg/mL (or as appropriate) of protein. The membranes are aliquoted and stored at −70° C.
C. Radioligand Binding Assay:
In wells of a 96-well format microtiter plate, is added 90, 110 or 130 μL (to make up a final volume of 200 μL) of assay buffer containing 50 mM of Tris-HCl (pH 7.4), […], 1 mg % aprotinin, 1 mg % leupeptin, 2 mg % 1,10-phenanthroline, 10 mg % trypsin inhibitor, and 0.1 mM PMSF. […]

Row | Structure (SMILES) | OT % inhibition @ 100 nM [%] | IC50 [nM]
1 | CC1=C(c2ccc(C(=O)N3Cc4ccc(C(=O)N(C)Cc5cccnc5)n4Cc4ccccc43)cc2C)CCC[C@H]1O [Example 3, 10-[4-((3R)-3-Hydroxy-2-methyl-cyclohex-1-en-1-yl)-3-methyl-benzoyl]-10,11-dihydro-5H-pyrrolo[2,1-c][1,4]benzodiazepine-3-carboxylic acid methyl-pyridin-3-yl methyl-amide] | 96 | –
2 | Cc1cc(C(=O)N2Cc3ccc(C(=O)NCc4ccccn4)n3Cc3ccccc32)ccc1C1=CCCCC1 [Example 5, 10-[4-(1-Cyclohex-1-en-1-yl)-3-methylbenzoyl]-N-(2-pyridinylmethyl)-10,11-dihydro-5H-pyrrolo[2,1-c][1,4]benzodiazepine-3-carboxamide] | 34 | –
3 | Cc1cc(C(=O)N2Cc3ccc(C(=O)N4CCN(c5ccncc5)CC4)n3Cc3ccccc32)ccc1C1=CCCCC1 [Example 12, {10-[4-(1-Cyclohex-1-en-1-yl)-3-methylbenzoyl]-10,11-dihydro-5H-pyrrolo[2,1--c][1,4]benzodiazepin-3-yl}[4-(4-pyridinyl)-1-piperazinyl]methanone] | 98 | –
4 | COc1cc(C2=CCCCC2)c(Cl)cc1C(=O)N1Cc2ccc(C(=O)N(C)Cc3cccnc3)n2Cc2ccccc21 [Example 1, 10-(5-Chloro-4-cyclohex-1-en-1-yl-2-me3thoxybenzoyl)-N-methyl-N-(pyridin-3-ylmethyl)-10,11-dihydro-5H-pyrrolo [2,1-c][1,4]benzodiazepine-3-carboxamide] | – | 4.47
5 | Cc1cc(C(=O)N2Cc3ccc(C(=O)N4CCN(c5ccccn5)CC4)n3Cc3ccccc32)ccc1C1=CCCCC1 [Example 9, {10-[4-(1-Cyclohex-1-en-1-yl)-3-methylbenzoyl]-10,11-dihydro-5H-pyrrolo[2,1-c][1,4]benzodiazepin-3-yl}[4-(2-pyridinyl)-1-piperazinyl]methanone] | 37 | –
6 | COc1cc(C2=CCCCC2)c(Cl)cc1C(=O)N1Cc2ccc(C(=O)N(C)Cc3cccnc3)n2Cc2ccccc21 [Example 2, 10-(5-Chloro-4-cyclohex-1-en-1-yl-2-methoxybenzoyl)-N-methyl-N-(pyridin-3-ylmethyl)-10,11-dihydro-5H-pyrrolo[2,1-c][1,4]benzodiazepine-3-carboxamide L-(+)-tartaric acid salt hemihydrate] | – | 3.17
7 | CC1=C(c2ccc(C(=O)N3Cc4ccc(C(=O)N(C)Cc5cccnc5)n4Cc4ccccc43)cc2C)CCC[C@H]1O.O=C(O)C(O)C(O)C(=O)O [Example 4, 10-[4-((3R)-3-Hydroxy-2-methyl-cyclohex-1-en-1-yl)-3-methyl-benzoyl]-10,11-dihydro-5H-pyrrolo[2,1-c][1,4]benzodiazepine-3-carboxylic acid methyl-pyridin-3-yl methyl-amide L-(+)-tartaric acid salt] | 99 | –
8 | Cc1cc(C(=O)N2Cc3ccc(C(=O)NCCc4ccccn4)n3Cc3ccccc32)ccc1C1=CCCCC1 [Example 7, 10-[4-(1-Cyclohex-1-en-1-yl)-3-methylbenzoyl]-N-[2-(2-pyridinyl)ethyl]-10,11-pyrrolo[2,1-c][1,4]benzodiazepine-3-carboxamide] | 42 | –

Results, then the compound that gave them:

Row | OT % inhibition @ 100 nM [%] | IC50 [nM] | Structure (SMILES)
9 | 87 | – | Cc1cc(C(=O)N2Cc3ccc(C(=O)N(C)Cc4cccnc4)n3Cc3ccccc32)ccc1C1=CCCCC1 [Example 11, 10-[4-(1-Cyclohex-1-en-1-yl)-3-methylbenzoyl]-N-methyl-N-(3-pyridinylmethyl)-10,11-dihydro-5H-pyrrolo[2,1-c][1,4]benzodiazepine-3-carboxamide]
10 | 95 | – | Cc1cc(C(=O)N2Cc3ccc(C(=O)N(C)CCc4ccncc4)n3Cc3ccccc32)ccc1C1=CCCCC1 [Example 13, 10-[4-(1-Cyclohex-1-en-1-yl)-3-methylbenzoyl]-N-methyl-N-[2-(4-pyridinyl)ethyl]-10,11-dihydro-5H-pyrrolo[2,1-c][1,4]benzodiazepine-3-carboxamide]
11 | 45 | – | Cc1cc(C(=O)N2Cc3ccc(C(=O)NCc4ccncc4)n3Cc3ccccc32)ccc1C1=CCCCC1 [Example 10, 10-[4-(1-Cyclohex-1-en-1-yl)-3-methylbenzoyl]-N-(4-pyridinylmethyl)-10,11-dihydro-5H-pyrrolo[2,1-c][1,4]benzodiazepine-3-carboxamide]
12 | 31 | – | Cc1cc(C(=O)N2Cc3ccc(C(=O)NCc4cccnc4)n3Cc3ccccc32)ccc1C1=CCCCC1 [Example 6, 10-[4-(1-Cyclohex-1-en-1-yl)-3-methylbenzoyl]-N-(3-pyridinylmethyl)-10,11-dihydro-5H-pyrrolo[2,1-c][1 ,4]benzodiazepine-3-carboxamide]
13 | 84 | – | Cc1cc(C(=O)N2Cc3ccc(C(=O)N(C)CCc4ccccn4)n3Cc3ccccc32)ccc1C1=CCCCC1 [Example 8, 10-[4-(1-Cyclohex-1-en-1-yl)-3-methylbenzoyl]-N-methyl-N-[2-(2-pyridinyl)ethyl]-10,11-dihydro-5H-pyrrolo[2,1-c][1 ,4]benzodiazepine-3-carboxamide]
